Reference: patent US20260295053A1, “COMPOUNDS FOR DEGRADATION AND INHIBITION OF KRAS (G12D) PROTEIN” (Shenzhen Ionova Life Science Co., Ltd., priority 2023, published 2026)

Molecular target: T1, KRAS (G12D) (Homo sapiens, UniProt P01116, G12D)
T1 construct: in-cell western with KRAS G12D antibody after 24 h
Experiment: KRAS (G12D) cellular degradation assay in AsPC-1 cells
Format: cell-based
Settings: 24 hours, antibody fluorescence (Odyssey CLX), DC50 half-maximal degradation concentration
How it was run: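 AsPC-1 cells: for degradation, grown to ~90% confluency, treated 24 h with 1:3 compound series ([…] to 1.5 nM), then fixed and immunostained for KRAS G12D and β-actin, read by infrared fluorescence, DC50 fitted. Proliferation: 3,500 cells/well, 6-day treatment, CellTiter Glo luminescence, IC50 fitted.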

T1 sequence (P01116 1-188 isoform P01116-2 G12D): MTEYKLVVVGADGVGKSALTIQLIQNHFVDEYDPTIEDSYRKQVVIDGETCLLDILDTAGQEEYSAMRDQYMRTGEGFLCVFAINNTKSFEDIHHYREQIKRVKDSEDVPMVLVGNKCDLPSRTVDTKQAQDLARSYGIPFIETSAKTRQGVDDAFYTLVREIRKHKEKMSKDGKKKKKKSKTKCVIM

SMILES | DC50 [nM]
CO[C@@H](C)COc1nc(N2CCCNCC2)c2cc(C3CC3)c(-c3c(C)c(F)cc4[nH]ncc34)c(OCc3ccc(-c4cn([C@H](C(=O)N5C[C@H](O)C[C@H]5C(=O)N[C@H](CO)c5ccc(-c6scnc6C)c6c5CC6)C(C)C)nn4)cc3)c2n1 [Example 221, (2S,4R)-1-((2S)-2-(4-(4-(((6-cyclopropyl-4-(1,4-diazepan-1-yl)-7-(6-fluoro-5-methyl-1H-indazol-4-yl)-2-((S)-2-methoxypropoxy)quinazolin-8-yl)oxy)methyl)phenyl)-1H-1,2,3-triazol-1-yl)-3-methylbutanoyl)-4-hydroxy-N—((S)-2-hydroxy-1-(5-(4-methylthiazol-5-yl)bicyclo[4.2.0]octa-1(6),2,4-trien-2-yl)ethyl)pyrrolidine-2-carboxamide] | 100 to 1000
CCn1nccc1-c1ccc([C@H](CO)NC(=O)[C@@H]2C[C@@H](O)CN2C(=O)[C@H](C(C)C)n2cc(-c3ccc(COc4c(-c5c(C)c(F)cc6[nH]ncc56)c(C5CC5)cc5c(N6C[C@H]7CN[C@H](C7)C6)nc(OC[C@H](C)OC)nc45)cc3)nn2)cc1 [Example 222, (2S,4R)-1-((2S)-2-(4-(4-(((4-((1R,5R)-3,6-diazabicyclo[3.2.1]octan-3-yl)-6-cyclopropyl-7-(6-fluoro-5-methyl-1H-indazol-4-yl)-2-((S)-2-methoxypropoxy)quinazolin-8-yl)oxy)methyl)phenyl)-1H-1,2,3-triazol-1-yl)-3-methylbutanoyl)-N—((R)-1-(4-(1-ethyl-1H-pyrazol-5-yl)phenyl)-2-hydroxyethyl)-4-hydroxypyrrolidine-2-carboxamide] | 10 to 100
CO[C@@H](C)COc1nc(N2C[C@H]3CN[C@H](C3)C2)c2cc(C3CC3)c(-c3c(C)c(F)cc4[nH]ncc34)c(OCc3ccc(-c4cn([C@H](C(=O)N5C[C@H](O)C[C@H]5C(=O)N[C@@H](CO)c5ccc(-c6scnc6C)cc5)C(C)C)nn4)cc3)c2n1 [Example 223, (2S,4R)-1-((2S)-2-(4-(4-(((4-((1R,5R)-3,6-diazabicyclo[3.2.1]octan-3-yl)-6-cyclopropyl-7-(6-fluoro-5-methyl-1H-indazol-4-yl)-2-((S)-2-methoxypropoxy)quinazolin-8-yl)oxy)methyl)phenyl)-1H-1,2,3-triazol-1-yl)-3-methylbutanoyl)-4-hydroxy-N—((R)-2-hydroxy-1-(4-(4-methylthiazol-5-yl)phenyl)ethyl)pyrrolidine-2-carboxamide] | 10 to 100
CCn1nccc1-c1ccc([C@H](CO)NC(=O)[C@@H]2C[C@@H](O)CN2C(=O)[C@H](C(C)C)n2cc(-c3ccc(COc4c(-c5c(C)c(F)cc6[nH]ncc56)c(C5CC5)cc5c(N6CCCNCC6)nc(OC[C@H](C)OC)nc45)cc3)nn2)c2c1CC2 [Example 224, (2S,4R)-1-((2S)-2-(4-(4-(((6-cyclopropyl-4-(1,4-diazepan-1-yl)-7-(6-fluoro-5-methyl-1H-indazol-4-yl)-2-((S)-2-methoxypropoxy)quinazolin-8-yl)oxy)methyl)phenyl)-1H-1,2,3-triazol-1-yl)-3-methylbutanoyl)-N—((R)-1-(5-(1-ethyl-1H-pyrazol-5-yl)bicyclo[4.2.0]octa-1(6),2,4-trien-2-yl)-2-hydroxyethyl)-4-hydroxypyrrolidine-2-carboxamide] | < 10
CCn1nccc1-c1ccc([C@H](CO)NC(=O)[C@@H]2C[C@@H](O)CN2C(=O)[C@H](C(C)C)n2cc(-c3ccc(COc4c(-c5c(C)c(F)cc6[nH]ncc56)c(C5CC5)cc5c(N6CCC(N)CC6)nc(OC[C@H](C)OC)nc45)cc3)nn2)cc1 [Example 225, (2S,4R)-1-((2S)-2-(4-(4-(((4-(4-aminopiperidin-1-yl)-6-cyclopropyl-7-(6-fluoro-5-methyl-1H-indazol-4-yl)-2-((S)-2-methoxypropoxy)quinazolin-8-yl)oxy)methyl)phenyl)-1H-1,2,3-triazol-1-yl)-3-methylbutanoyl)-N—((R)-1-(4-(1-ethyl-1H-pyrazol-5-yl)phenyl)-2-hydroxyethyl)-4-hydroxypyrrolidine-2-carboxamide] | < 10

Further lines, results first:

DC50 [nM] | SMILES
10 to 100 | CCn1nccc1-c1ccc([C@H](CO)NC(=O)[C@@H]2C[C@@H](O)CN2C(=O)[C@H](C(C)C)n2cc(-c3ccc(COc4c(-c5c(C)c(F)cc6[nH]ncc56)c(C5CC5)cc5c(N6CCC(NC(C)=O)CC6)nc(OC[C@H](C)OC)nc45)cc3)nn2)cc1 [Example 226, (2S,4R)-1-((2S)-2-(4-(4-(((4-(4-acetamidopiperidin-1-yl)-6-cyclopropyl-7-(6-fluoro-5-methyl-1H-indazol-4-yl)-2-((S)-2-methoxypropoxy)quinazolin-8-yl)oxy)methyl)phenyl)-1H-1,2,3-triazol-1-yl)-3-methylbutanoyl)-N—((R)-1-(4-(1-ethyl-1H-pyrazol-5-yl)phenyl)-2-hydroxyethyl)-4-hydroxypyrrolidine-2-carboxamide]
10 to 100 | CCn1nccc1-c1ccc([C@H](CO)NC(=O)[C@@H]2C[C@@H](O)CN2C(=O)[C@H](C(C)C)n2cc(-c3ccc(COc4c(-c5c(C)c(F)cc6[nH]ncc56)c(C5CC5)cc5c(N6CC7CNCC7C6)nc(OC[C@H](C)OC)nc45)cc3)nn2)cc1 (stereo partly drawn) [Example 227, (2S,4R)-1-((2S)-2-(4-(4-(((6-cyclopropyl-7-(6-fluoro-5-methyl-1H-indazol-4-yl)-4-(hexahydropyrrolo[3,4-c]pyrrol-2(1H)-yl)-2-((S)-2-methoxypropoxy)quinazolin-8-yl)oxy)methyl)phenyl)-1H-1,2,3-triazol-1-yl)-3-methylbutanoyl)-N—((R)-1-(4-(1-ethyl-1H-pyrazol-5-yl)phenyl)-2-hydroxyethyl)-4-hydroxypyrrolidine-2-carboxamide]
< 10 | CCn1nccc1-c1ccc([C@H](CO)NC(=O)[C@@H]2C[C@@H](O)CN2C(=O)[C@H](C(C)C)n2cc(-c3ccc(COc4c(-c5c(C)c(F)cc6[nH]ncc56)c(C5CC5)cc5c(N(C)C[C@@H]6CCCN6)nc(OC[C@H](C)OC)nc45)cc3)nn2)cc1 [Example 228, (2S,4R)-1-((2S)-2-(4-(4-(((6-cyclopropyl-7-(6-fluoro-5-methyl-1H-indazol-4-yl)-2-((S)-2-methoxypropoxy)-4-(methyl(((S)-pyrrolidin-2-yl)methyl)amino)quinazolin-8-yl)oxy)methyl)phenyl)-1H-1,2,3-triazol-1-yl)-3-methylbutanoyl)-N—((R)-1-(4-(1-ethyl-1H-pyrazol-5-yl)phenyl)-2-hydroxyethyl)-4-hydroxypyrrolidine-2-carboxamide]
10 to 100 | CCn1nccc1-c1ccc([C@H](CO)NC(=O)[C@@H]2C[C@@H](O)CN2C(=O)[C@H](C(C)C)n2cc(-c3ccc(COc4c(-c5c(C)c(F)cc6[nH]ncc56)c(C5CC5)cc5c(N6C[C@@H]7CN[C@@H](C7)C6)nc(OC[C@H](C)OC)nc45)cc3)nn2)cc1 [Example 229, (2S,4R)-1-((2S)-2-(4-(4-(((4-((1S,5S)-3,6-diazabicyclo[3.2.1]octan-3-yl)-6-cyclopropyl-7-(6-fluoro-5-methyl-1H-indazol-4-yl)-2-((S)-2-methoxypropoxy)quinazolin-8-yl)oxy)methyl)phenyl)-1H-1,2,3-triazol-1-yl)-3-methylbutanoyl)-N—((R)-1-(4-(1-ethyl-1H-pyrazol-5-yl)phenyl)-2-hydroxyethyl)-4-hydroxypyrrolidine-2-carboxamide]
10 to 100 | CO[C@@H](C)COc1nc(N2C[C@@H]3CN[C@@H](C3)C2)c2cc(C3CC3)c(-c3c(C)c(F)cc4[nH]ncc34)c(OCc3ccc(-c4cn([C@H](C(=O)N5C[C@H](O)C[C@H]5C(=O)N[C@@H](CO)c5ccc(-c6scnc6C)cc5)C(C)C)nn4)cc3)c2n1 [Example 230, (2S,4R)-1-((2S)-2-(4-(4-(((4-((1S,5S)-3,6-diazabicyclo[3.2.1]octan-3-yl)-6-cyclopropyl-7-(6-fluoro-5-methyl-1H-indazol-4-yl)-2-((S)-2-methoxypropoxy)quinazolin-8-yl)oxy)methyl)phenyl)-1H-1,2,3-triazol-1-yl)-3-methylbutanoyl)-4-hydroxy-N—((R)-2-hydroxy-1-(4-(4-methylthiazol-5-yl)phenyl)ethyl)pyrrolidine-2-carboxamide]
